Data published in patent US20230365618A1, “CRYSTALLINE THIOCHOLESTEROL” (Durect Corporation, priority 2020, published 2023).

Legend:
[1] = tested on: lipid biosynthesis; cholesterol secretion and degradation; details: shown previously; cited from earlier work
[2] = Relative thermodynamic stability of the forms from crystal density, DSC melt onset and heat of fusion; assay type: physicochemical; details: suggested by higher crystal density and melt onset (with higher heat of fusion)
Experimental: A tau lag adjustment is performed with indium, tin, and zinc. […] The adjustment is then verified with octane, phenyl salicylate, indium, tin, and zinc. […] A weighed aluminum pan configured as the sample pan was placed on the […] side of the cell.

[3] = Dynamic vapor sorption/desorption (DVS); assay type: physicochemical; details: for hygroscopicity: DVS plot

Row | SMILES | cholesterol secretion and degradation [1] | lipid biosynthesis [1] | thermodynamic stability relative to another form [2] | weight change during the DVS cycle ([3]; 5% to 95% RH, sorption and desorption, FIG. 6) [%] | hygroscopicity ([3]; FIG. 6) | hygroscopicity ([3]; FIG. 6, listed as Crystalline thiocholesterol Form A) | solid form of material recovered from the DVS experiment (x-ray powder diffraction) ([3]; after DVS cycle 5% to 95% RH)
1 | CC(C)CCC[C@@H](C)[C@H]1CC[C@H]2[C@@H]3CC=C4C[C@@H](S)CC[C@]4(C)[C@H]3CC[C@]12C [Thiocholesterol, (3 S,8S,9S,10R,13R,14S,17R)-17-[(1R)-1,5-dimethylhexyl]-10,13-dimethyl-2,3,4,7,8,9,11,12,14,15,16,17-dodecahydro-1H-cyclopenta[a] phenanthrene-3-thiol] | increases | decreases | – | – | – | – | –
2 | CC(C)CCC[C@@H](C)[C@H]1CC[C@H]2[C@@H]3CC=C4C[C@@H](S)CC[C@]4(C)[C@H]3CC[C@]12C [crystalline thiocholesterol Form A] | – | – | more thermodynamically stable than Crystalline Thiocholesterol Form B | 0.25 | low hygroscopicity | non-hygroscopic | identified as crystalline thiocholesterol Form A
